Results on 15 compounds are retold here after patent US20240199654A1, “CTLA-4 SMALL MOLECULE DEGRADATION AGENT AND APPLICATION THEREOF” (SUZHOU GUOKUANG PHARMTECH. CO., LTD., priority 2021, published 2024).

For experiment [1], the system named is Colorectal cancer (MSI-H/dMMR). The conditions noted are these: clinical; cited from earlier work.
A further experiment has as its system Hepatocellular carcinoma. The conditions noted are these: clinical; cited from earlier work.
Experiment [2] relates to Non-small cell lung cancer. The following applies: clinical; cited from earlier work.
In experiment [3] the target is T1, LRBA and CTLA-4 reporting system (Homo sapiens, UniProt P16410+P50851).
T1 construct: expressed in transfected cells; host or cells: HEK293
In words: LRBA/CTLA-4 protein-protein interaction reporting system, dual luciferase assay in HEK293 cells. In kind it is cell-based. The conditions noted are these: HEK293 cells co-transfected with LRBA and CTLA-4 reporting system, 24 h after dosing; read-out: In vitro activity (IC50: concentration of compounds that inhibit 50% of reporting system activity). On the procedure:
HEK293 cells were spread on 96-well plates, and LRBA and CTLA-4 reporting system were co-transfected into HEK293 cells after 24 h. After 24 h, different compounds with final concentrations of 0.01, 0.033, 0.10, 0.33, 1.00, 3.33, 10.00, 33.33, and 100.00 μM were added. 24 h after dosing, the cell culture medium was removed and the cells were washed with cold PBS. Then the activity of the compounds were detected by the dual luciferase assay kit, and IC50 values were calculated according to the results.
For the compounds with strong activity (IC50<200 nM), the degradation of CTLA-4 protein was further detected by Western Blot. • IC50: Concentration of compounds that inhibit 50% of reporting system activity The size of IC50 is divided into four levels: • ++++, IC50<200 nM; +++, IC50 is 200-1000 nM; ++, IC50 is 1000-2000 nM; +, IC50>2000 nM.

Experiment [4] concerns Mouse colon cancer MC-38 cells. In words: In vivo activity research of xenograft model (MC-38). Also on record: species or system C57BL/6 mice. The conditions noted are these: for TGI(%): 30 mg/kg, oral, once a day, MC-38 subcutaneous in C57BL/6 mice. On the procedure: 1. Cell culture: Mouse colon cancer MC-38 cells were adherently cultured in vitro. The culture conditions were RPMI-1640 medium with 10% fetal bovine serum, 100 U/mL penicillin and 100 μg/mL streptomycin, 37° C. 5% CO2 incubator culture. Passaged with routine processing two to three times a week. When the cell saturation was 80%-90% and the number reached the requirement, the cell count was collected, and the cell concentration was adjusted for experimental inoculation. 2. Animals: C57BL/6 mice, female, 7 weeks old, 18-20 grams in weight, 8 mice per group. 3. Tumor inoculation: 0.02 mL (0.2×10^6) MC-38 cells were subcutaneously inoculated into the right back of each mouse. On the 7th day after inoculation, the tumor volumes of the animals were measured, and then the groups were randomized according to tumor volume and administration was started. 4. Experimental indicators: The experimental indicators were used to examine whether the tumor growth is inhibited, delayed or cured. Tumor diameters were measured with vernier calipers two to three times a week. The calculation formula of tumor volume is: V=0.5a×b^2, wherein a and b respectively represent the long and short diameters of tumors. The anti-tumor effect of the compounds was expressed by TGI (%). TGI (%), reflecting tumor growth inhibition rate. Calculation of TGI(%): TGI(%)=[(1-(average tumor volume at the end of administration of a treatment group−average tumor volume at the beginning of administration of the treatment group))/(average tumor volume at the end of treatment of the solvent control group−average tumor volume at the beginning of treatment of the solvent control group)]×100%. 5. Animal experiment grouping, administration program and experimental results: […]

T1 sequence (P16410 36-223): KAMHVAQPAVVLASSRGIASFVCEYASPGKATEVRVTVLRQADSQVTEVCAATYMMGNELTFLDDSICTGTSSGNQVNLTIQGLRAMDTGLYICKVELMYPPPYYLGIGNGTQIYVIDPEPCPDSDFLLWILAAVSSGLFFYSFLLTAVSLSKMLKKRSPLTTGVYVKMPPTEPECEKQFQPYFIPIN
T1 sequence (P50851 whole entry): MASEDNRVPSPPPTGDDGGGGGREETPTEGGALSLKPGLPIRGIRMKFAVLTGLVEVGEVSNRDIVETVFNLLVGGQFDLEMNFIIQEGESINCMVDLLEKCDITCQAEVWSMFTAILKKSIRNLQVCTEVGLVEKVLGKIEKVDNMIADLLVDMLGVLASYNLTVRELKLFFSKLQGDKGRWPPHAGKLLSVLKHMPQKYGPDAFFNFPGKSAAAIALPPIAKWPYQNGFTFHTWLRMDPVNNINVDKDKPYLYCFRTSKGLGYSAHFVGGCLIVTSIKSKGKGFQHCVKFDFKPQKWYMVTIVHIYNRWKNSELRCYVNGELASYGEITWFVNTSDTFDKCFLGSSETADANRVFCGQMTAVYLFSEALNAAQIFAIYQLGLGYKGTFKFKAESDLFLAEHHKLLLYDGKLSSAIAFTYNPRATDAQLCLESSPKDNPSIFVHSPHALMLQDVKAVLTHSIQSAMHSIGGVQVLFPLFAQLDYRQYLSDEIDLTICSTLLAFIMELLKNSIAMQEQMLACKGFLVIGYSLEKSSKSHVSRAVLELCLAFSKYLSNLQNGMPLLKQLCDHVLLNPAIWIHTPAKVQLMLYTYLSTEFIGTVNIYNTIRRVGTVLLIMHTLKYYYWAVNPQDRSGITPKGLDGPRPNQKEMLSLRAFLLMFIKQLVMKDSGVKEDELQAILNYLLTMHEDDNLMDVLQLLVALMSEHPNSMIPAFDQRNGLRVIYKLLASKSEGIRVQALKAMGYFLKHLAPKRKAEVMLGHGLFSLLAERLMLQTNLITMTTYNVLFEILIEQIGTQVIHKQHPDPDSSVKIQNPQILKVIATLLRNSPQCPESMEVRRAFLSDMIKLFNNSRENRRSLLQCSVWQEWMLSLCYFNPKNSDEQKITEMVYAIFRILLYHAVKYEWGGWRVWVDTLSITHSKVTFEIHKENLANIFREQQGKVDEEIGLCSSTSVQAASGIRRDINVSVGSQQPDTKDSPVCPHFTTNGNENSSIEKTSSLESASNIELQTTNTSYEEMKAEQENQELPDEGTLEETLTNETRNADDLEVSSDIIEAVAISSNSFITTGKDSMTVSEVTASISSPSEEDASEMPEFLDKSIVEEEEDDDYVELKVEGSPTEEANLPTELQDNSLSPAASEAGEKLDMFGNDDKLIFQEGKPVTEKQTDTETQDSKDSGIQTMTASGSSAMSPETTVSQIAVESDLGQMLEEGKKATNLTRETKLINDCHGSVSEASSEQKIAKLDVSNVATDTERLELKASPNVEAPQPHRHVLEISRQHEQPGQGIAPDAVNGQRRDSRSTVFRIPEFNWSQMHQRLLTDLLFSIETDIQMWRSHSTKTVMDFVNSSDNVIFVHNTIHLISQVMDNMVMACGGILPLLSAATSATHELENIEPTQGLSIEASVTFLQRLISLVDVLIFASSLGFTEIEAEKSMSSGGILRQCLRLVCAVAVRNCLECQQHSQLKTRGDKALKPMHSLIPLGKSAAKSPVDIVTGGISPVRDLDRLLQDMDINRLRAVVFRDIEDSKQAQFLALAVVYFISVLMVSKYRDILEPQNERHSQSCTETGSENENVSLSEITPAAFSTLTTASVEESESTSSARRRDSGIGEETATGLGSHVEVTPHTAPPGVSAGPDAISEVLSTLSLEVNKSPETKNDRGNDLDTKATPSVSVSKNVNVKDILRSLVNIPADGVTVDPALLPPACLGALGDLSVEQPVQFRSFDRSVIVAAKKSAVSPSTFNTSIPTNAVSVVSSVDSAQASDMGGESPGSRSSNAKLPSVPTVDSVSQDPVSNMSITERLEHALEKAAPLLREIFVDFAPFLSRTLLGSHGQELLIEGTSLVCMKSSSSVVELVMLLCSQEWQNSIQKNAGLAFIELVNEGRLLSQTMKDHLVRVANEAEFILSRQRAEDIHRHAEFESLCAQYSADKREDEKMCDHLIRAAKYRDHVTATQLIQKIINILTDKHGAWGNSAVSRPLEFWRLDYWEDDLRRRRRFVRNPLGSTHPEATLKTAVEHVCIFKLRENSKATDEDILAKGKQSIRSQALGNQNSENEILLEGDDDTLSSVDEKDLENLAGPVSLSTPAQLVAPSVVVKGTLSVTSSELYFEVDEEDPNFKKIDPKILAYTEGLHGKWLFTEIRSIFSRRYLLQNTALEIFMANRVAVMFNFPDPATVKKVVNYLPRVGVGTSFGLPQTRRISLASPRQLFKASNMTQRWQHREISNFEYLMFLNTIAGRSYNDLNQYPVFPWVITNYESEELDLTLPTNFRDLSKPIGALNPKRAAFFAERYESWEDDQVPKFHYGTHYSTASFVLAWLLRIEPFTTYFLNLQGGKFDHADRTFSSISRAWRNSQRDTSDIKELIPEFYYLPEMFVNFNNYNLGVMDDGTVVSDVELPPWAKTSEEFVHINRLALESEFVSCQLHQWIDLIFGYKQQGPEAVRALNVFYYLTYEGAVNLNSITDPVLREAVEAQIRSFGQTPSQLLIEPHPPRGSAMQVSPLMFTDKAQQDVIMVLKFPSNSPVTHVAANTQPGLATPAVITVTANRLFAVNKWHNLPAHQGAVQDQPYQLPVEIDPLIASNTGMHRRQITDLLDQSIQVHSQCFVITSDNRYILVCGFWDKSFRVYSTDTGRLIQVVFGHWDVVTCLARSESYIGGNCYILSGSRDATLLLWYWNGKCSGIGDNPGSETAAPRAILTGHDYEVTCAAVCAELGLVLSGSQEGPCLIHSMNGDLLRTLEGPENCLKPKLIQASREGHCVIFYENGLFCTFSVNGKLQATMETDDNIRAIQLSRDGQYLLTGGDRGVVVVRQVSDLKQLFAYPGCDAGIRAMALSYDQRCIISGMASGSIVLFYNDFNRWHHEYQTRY

In the case of Nivolumab [O drug], the ORR entry was “single O drug group ORR = 36%” in experiment [1], “single O drug group ORR = 15%” in the experiment with Hepatocellular carcinoma and “single O drug group ORR = 14.5%” in experiment [2].

As to `NCC1CCN(c2nccc(-c3cnc4ccccc4c3)n2)CC1` [Compound 1, (1-(4-(quinolin-3-yl)pyrimidin-2-yl)piperidin-4-yl)methylamine], the IC50 in experiment [3] was under 200 nM.

Turning to `c1ccc2ncc(-c3nc(N4CCNCC4)ncc3C3CC3)cc2c1` [Compound 50, 3-(5-cyclopropyl-2-(piperazin-1-yl)pyrimidin-4-yl)quinoline], in experiment [3], the IC50 was under 200 nM.

Turning to `c1ccc2c(-c3ccnc(N4CCNCC4)n3)coc2c1` [Compound 33, 4-(benzofuran-3-yl)-2-(piperazin-1-yl)pyrimidine], in experiment [3], the IC50 is 200 to 1000 nM.

Turning to `c1ccc2c(-c3ccnc(N4CCNCC4)n3)c[nH]c2c1` [Compound 32, 3-(2-(piperazin-1-yl)pyrimidin-4-yl)-1H-indole], in experiment [3], the IC50 was in the range of 200 to 1000 nM.

On to `c1ccc2ncc(-c3nc(N4CCNCC4)nc4ccccc34)cc2c1` [Compound 36, 2-(piperazin-1-yl)-4-(quinolin-3-yl)quinazoline], for which the IC50 in experiment [3] was in the range of 200 to 1000 nM.

As for `COc1cc(-c2cnc3ccccc3c2)nc(N2CCNCC2)n1` [Compound 39, 3-(6-methoxy-2-(piperazin-1-yl)pyrimidin-4-yl)quinoline], the IC50 in experiment [3] was under 200 nM.

Regarding `N#Cc1cc(-c2cnc3ccccc3c2)nc(N2CCNCC2)n1` [Compound 42, 3-(6-cyano-2-(piperazin-1-yl)pyrimidin-4-yl)quinoline], the IC50 in experiment [3] is under 200 nM.

With `NCCNc1nccc(-c2cnc3ccccc3c2)n1` [Compound 26, N-(4-(quinolin-3-yl)pyrimidin-2-yl)ethane-1,2-diamine], the IC50 in experiment [3] was under 200 nM.

`NCC1CCN(c2nccc(-c3cc4ccccc4nc3N)n2)CC1` [Compound 16, 3-(2-(4-(aminomethyl)piperidin-1-yl)pyrimidin-4-yl)quinolin-2-amine]: the IC50 in experiment [3] was over 2000 nM.

Consider `c1ccc2ncc(-c3ccnc(N4CCNCC4)n3)cc2c1` [Compound 18, 3-(2-(piperazin-1-yl)pyrimidin-4-yl)quinoline], for which the IC50 in experiment [3] was under 200 nM. Also, in experiment [4], the “TGI(%)” value is reported as 90%. The “anti-tumor effect in tumor transplantation model in vivo” value in experiment [4] (MC-38 model) is listed as “excellent anti-tumor effects”.

Turning to `Cn1ncc2c(-c3cnc4ccccc4c3)nc(N3CCNCC3)nc21` [Compound 52, 3-(1-methyl-6-(piperazin-1-yl)-1H-pyrazolo[3,4-d]pyrimidin-4-yl)quinoline], the IC50 in experiment [3] fell in the range of 1000 to 2000 nM.

For `Nc1cc(-c2cnc3ccccc3c2)nc(N2CCNCC2)n1` [Compound 47, 2-(piperazin-1-yl)-6-(quinolin-3-yl)pyrimidin-4-amine], the IC50 in experiment [3] is under 200 nM.

As for `c1ccc2ncc(-c3cc(N4CCNCC4)ncn3)cc2c1` [Compound 44, 3-(6-(piperazin-1-yl)pyrimidin-4-yl)quinoline], the IC50 in experiment [3] was under 200 nM. The “TGI(%)” value in experiment [4] came out at 85%.

For the compound `c1ccc2ncc(-c3nc(N4CCNCC4)nc4c3CCCC4)cc2c1` [Compound 37, 2-(piperazin-1-yl)-4-(quinolin-3-yl)-5,6,7,8-tetrahydroquinazoline], in experiment [3], the IC50 fell in the range of 200 to 1000 nM.
